From patent EP0845265A1, “MUCOSAL P[…] PHYSIOLOGICALLY ACTIVE PEPTIDE” (Asahi Kasei Kogyo Kabushiki Kaisha, priority 1995, dated 1997)
Counter-ions that a name gives are not always drawn.

Assay: In vivo absorption of elcatonin by rats (nasal administration, serum level by RIA)
Set-up: species or system Wistar rats
Settings: diltiazem hydrochloride per se, without absorption promotor
Procedure: In vivo absorption of elcatonin by rats :
Wistar rats, male (Japan SLC, body weight 200 - 250 g), fasting overnight, 4 rats in a group, were anesthetized by pentobarbital (Nembutal inj. Dainippon Pharm. Co., Japan).
Polyethylene tube was inserted into the trachea by incised in the corvex. Tube was inserted into postnasal space after esophageal incision. Administration was conducted by pouring drug solution 25 µl prepared in use using micropipette into the right naris. Blood sample 200 µl was collected from femoral vein time dependently before and after administration of drug. Blood sample was centrifuged (15,000 rpm/10 min./5°C) and stored at -30 °C before analysis.
Elcatonin 20 units/ml (in physiological saline) 0.25 ml was subcutaneously administered for comparison with absorption rate (comparison 1).
Blood level was assayed by RIA.
Absorption rate is calculated by using area under the curve (AUC) in the comparison 1 from the following equation. Absorption rate (%) =(AUC (I.N.))/(AUC (S.C.))×(dose (S.C.))/(dose (I.N.))×100 [formula] wherein I. N. : nasal administraion and S.C. : subcutaneous administration. As clearly shown in Fig. 2, absorption of elcatonin was enhanced in above 2 fold through nasal mucosa by administering with absorption promotor sodium glycocholate and calciuim channel blocker as compared with sodium glycocholic acid per se.

COc1ccc([C@@H]2Sc3ccccc3N(CCN(C)C)C(=O)[C@@H]2OC(C)=O)cc1 [diltiazem hydrochloride, Diltiazem hydrochloride]
absorption promoting action: no absorption promoting action
